Where a SMILES comes first, the peptide text is derived from it. The star is where a group is joined. NHPhenethyl = c1ccc(CCN*)cc1; Cbz = O=C(OCc1ccccc1)*

The target in the first experiment is T1, NS3 protease domain complexed to a modified form of the NS4A peptide (Pep4AK) (Hepatitis C virus genotype 1b, UniProt P26663).
T1 construct: NS3 protease domain (residues 1027–1206 of the HCV polyprotein)
T1 sequence (P26663 1027-1206, other chains not shown): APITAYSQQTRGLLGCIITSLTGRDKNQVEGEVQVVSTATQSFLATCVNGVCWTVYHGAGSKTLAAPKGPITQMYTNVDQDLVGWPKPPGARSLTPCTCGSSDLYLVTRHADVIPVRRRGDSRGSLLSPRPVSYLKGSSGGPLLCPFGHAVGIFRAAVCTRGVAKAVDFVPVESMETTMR
Description: HCV NS3 protease domain/NS4A cofactor peptide assay (Assay B). Format: biochemical. Conditions: NS3 protease domain/NS4A cofactor peptide assay; read-out: Assay B (IC50 class).
Consider `CC(C)CC(NC(=O)c1ccccc1-c1ccccc1C(=O)O)C(=O)NC(CC(F)F)C(=O)NCCc1c(F)cc(C(=O)O)cc1F` (stereo not shown) [Compound 718], for which the IC50 was less than 100 µM.
Regarding `CC(C)CC(NC(=O)c1ccccc1-c1ccccc1C(=O)O)C(=O)NC(CS)C(=O)NCCc1ccccc1Cl` (stereo not shown) [Compound 716], the IC50 was less than 100 µM.
On to `CC(C)C[C@H](NC(=O)C1(Cc2ccc(C(=O)O)s2)Cc2ccccc2N1)C(=O)N[C@@H](CS)C(=O)NCCc1ccc(C(=O)O)cc1` (mixture of isomers) [Compound 703], for which the IC50 was less than 100 µM.
As for `CC(C)C[C@H](NC(=O)C1Cc2ccccc2N1)C(=O)N[C@@H](CC(F)F)C(=O)NCCc1c(F)cc(C(=O)O)cc1F` (stereo partly shown) [Compound 709], the IC50 is less than 100 µM.
`CC(C)C[C@H](NC(=O)C1(Cc2ccc(C(=O)O)cc2)Cc2ccccc2N1)C(=O)N[C@@H](CS)C(=O)NCCc1ccc(C(=O)O)cc1` (single isomer, unassigned) [Compound 702]: the IC50 is less than 100 µM.
Regarding `CC(C)C[C@H](NC(=O)C1(Cc2cccc(C(=O)O)c2)Cc2ccccc2N1)C(=O)N[C@@H](CS)C(=O)NCCc1ccc(C(=O)O)cc1` (mixture of isomers) [Compound 701], the IC50 was less than 100 µM.
For the molecule `CC(C)C[C@H](NC(=O)C1(Cc2ccsc2C(=O)O)CCc2ccccc2N1)C(=O)N[C@@H](CC(F)F)C(=O)NCCc1cccc(/C=C/C(=O)O)c1` (single isomer, unassigned) [Compound 714], the IC50 is less than 100 µM.
Consider `CC(C)C[C@H](NC(=O)C1(Cc2ccsc2C(=O)O)CCc2ccccc2N1)C(=O)N[C@@H](CC(F)F)C(=O)NCCc1c(F)cc(C(=O)O)cc1F` (single isomer, unassigned) [Compound 713], for which the IC50 was less than 100 µM.

Still in this experiment, the particulars now being: Table 1; NS3 protease domain/Pep4AK, 4AB peptide substrate; read-out: Assay B.
With `CCOC(=O)/C=C/c1cccc(CCNC(=O)[C@H](CS)NC(=O)[C@H](CC(C)C)NC(=O)[C@H](CCC(=O)O)NC(=O)OCC(C)C)c1` [Compound 135], the IC50 is less than 100 µM.
`CC(C)COC(=O)NC(CCC(=O)O)C(=O)NC(CC(C)C)C(=O)NC(CS)C(=O)NCCc1ccc(C(F)(F)F)cc1` (stereo not shown) [Compound 149]: the IC50 was less than 100 µM.
For the molecule `CC(C)C[C@H](NC(=O)[C@H](CCC(=O)O)NC(=O)OCc1ccccc1)C(=O)N[C@@H](CS)C(=O)NCCc1ccccc1` [Compound 101] (Cbz-Glu-Leu-Cys-NHPhenethyl), the IC50 was less than 100 µM.
On to `CC(C)COC(=O)N[C@@H](CCC(=O)O)C(=O)N[C@@H](CC(C)C)C(=O)N[C@@H](CS)C(=O)NCC(C)c1ccccc1` (mixture of isomers) [Compound 107], for which the IC50 is less than 100 µM.
In the case of `CC(C)COC(=O)NC(CCC(=O)O)C(=O)NC(CC(C)C)C(=O)NC(CS)C(=O)NCCc1ccccc1C(F)(F)F` (stereo not shown) [Compound 121], the IC50 is less than 100 µM.
For the molecule `CCOc1ccc(CCNC(=O)C(CS)NC(=O)C(CC(C)C)NC(=O)C(CCC(=O)O)NC(=O)OCC(C)C)cc1` (stereo not shown) [Compound 144], the IC50 is less than 100 µM.
On to `CC(C)C[C@H](NC(=O)[C@@H](NC(=O)OCC1CCCC1)C(C)C)C(=O)N[C@@H](CS)C(=O)NCCc1ccc(C(=O)O)cc1Cl` [Compound 181], for which the IC50 was less than 10 µM.
In the case of `CC(C)COC(=O)NC(CCC(=O)O)C(=O)NC(CC(C)C)C(=O)NC(CS)C(=O)NCCc1cccc(Oc2ccccc2)c1` (stereo not shown) [Compound 137], the IC50 is less than 100 µM.
Still for that read-out and setting: to `CC(C)COC(=O)NC(CCC(=O)O)C(=O)NC(CC(C)C)C(=O)NC(CS)C(=O)NCCc1ccc(S(=O)(=O)NC(=O)C(C)C)cc1` (stereo not shown) [Compound 161] belongs less than 10 µM; to `Cc1ccccc1CCNC(=O)C(CS)NC(=O)C(CC(C)C)NC(=O)C(CCC(=O)O)NC(=O)OCC(C)C` (stereo not shown) [Compound 118], less than 100 µM.
In the case of `CC(C)COC(=O)NC(CCC(=O)O)C(=O)NC(CC(C)C)C(=O)NC(CS)C(=O)NCCc1ccc(C(C)(C)C)cc1` (stereo not shown) [Compound 148], the IC50 is less than 100 µM.
Turning to `COc1ccc(CCNC(=O)C(CS)NC(=O)C(CC(C)C)NC(=O)C(CCC(=O)O)NC(=O)OC(C)(C)C)cc1` (stereo not shown) [Compound 142], the IC50 was less than 100 µM.
As for `CC(C)COC(=O)NC(CCC(=O)O)C(=O)NC(CC(C)C)C(=O)NC(CS)C(=O)NCCc1ccccc1Br` (stereo not shown) [Compound 117], the IC50 is less than 100 µM.
Take `CC(C)COC(=O)N[C@@H](CCC(=O)O)C(=O)N[C@@H](CC(C)C)C(=O)N[C@@H](CS)C(=O)NCCc1ccc(Cl)cc1Cl` [Compound 165]: the IC50 was less than 10 µM.
On to `CC(C)COC(=O)NC(C(=O)NC(CC(C)C)C(=O)NC(CC(F)F)C(=O)NCCc1ccc(C(=O)O)cc1Cl)C(C)C` (stereo not shown) [Compound 179], for which the IC50 is less than 10 µM.
As for `CC(C)COC(=O)N[C@@H](CCC(=O)O)C(=O)N[C@@H](CC(C)C)C(=O)N[C@@H](CS)C(=O)NCCc1ccc(/C=C/C(=O)O)cc1` [Compound 158], the IC50 was less than 10 µM.
Consider `CC(C)COC(=O)NC(CCC(=O)O)C(=O)NC(CC(C)C)C(=O)NC(CS)C(=O)NCCc1ccccc1F` (stereo not shown) [Compound 112], for which the IC50 is less than 100 µM.
As to `CC(C)COC(=O)NC(CCC(=O)O)C(=O)NC(CC(C)C)C(=O)NC(CS)C(=O)NCCc1cccc(Br)c1` (stereo not shown) [Compound 128], the IC50 is less than 100 µM.
For the molecule `CC(C)COC(=O)NC(CCC(=O)O)C(=O)NC(CC(C)C)C(=O)NC(CS)C(=O)NCCc1ccc(Cl)cc1` (stereo not shown) [Compound 138], the IC50 was less than 100 µM.
For the molecule `CC(C)COC(=O)NC(CCC(=O)O)C(=O)NC(CC(C)C)C(=O)NC(CS)C(=O)NCCc1cccc(-c2ccccc2)c1` (stereo not shown) [Compound 136], the IC50 was less than 100 µM.
The same measure, in the same setting: to `CCCCc1ccnc(C(=O)NS(=O)(=O)c2ccc(CCNC(=O)[C@H](CS)NC(=O)[C@H](CC(C)C)NC(=O)[C@H](CCC(=O)O)NC(=O)OCC(C)C)cc2)c1` [Compound 163] belongs less than 10 µM; to `CC(C)COC(=O)NC(CCC(=O)O)C(=O)NC(CC(C)C)C(=O)NC(CS)C(=O)NCCc1ccccc1Oc1ccccc1` (stereo not shown) [Compound 123], less than 100 µM.
Same read-out and setting: to `CCOc1ccccc1CCNC(=O)C(CS)NC(=O)C(CC(C)C)NC(=O)C(CCC(=O)O)NC(=O)OCC(C)C` (stereo not shown) [Compound 120] belongs less than 100 µM; to `CC(C)COC(=O)NC(CCC(=O)O)C(=O)NC(CC(C)C)C(=O)NC(CS)C(=O)NCCc1ccc2ccccc2c1` (stereo not shown) [Compound 192], less than 100 µM.
`CC(C)C[C@H](NC(=O)[C@@H](NC(=O)OCC1CCOC1)C(C)C)C(=O)N[C@@H](CS)C(=O)NCCc1ccc(C(=O)O)cc1Cl` (stereo partly shown) [Compound 183]: the IC50 is less than 10 µM.
The same measure, in the same setting: to `CC(C)COC(=O)NC(CCC(=O)O)C(=O)NC(CC(C)C)C(=O)NC(CS)C(=O)NCCc1ccccc1Cl` (stereo not shown) [Compound 113] belongs less than 100 µM; to `CC(C)COC(=O)N[C@@H](CCC(=O)O)C(=O)N[C@@H](CC(C)C)C(=O)N[C@@H](CS)C(=O)NCC(O)c1ccccc1` (mixture of isomers) [Compound 106], less than 100 µM; to `COC(=O)c1ccc(CCNC(=O)C(CS)NC(=O)C(CC(C)C)NC(=O)C(CCC(=O)O)NC(=O)OCC(C)C)c(F)c1` (stereo not shown) [Compound 185], less than 100 µM.
For `CC(C)CCOC(=O)NC(C(=O)NC(CC(C)C)C(=O)NC(CS)C(=O)NCCc1ccc(C(=O)O)cc1Cl)C(C)C` (stereo not shown) [Compound 184], the IC50 was less than 10 µM.
Still for that read-out and setting: the value for `CCOC(=O)/C=C/c1ccc(CCNC(=O)[C@H](CS)NC(=O)[C@H](CC(C)C)NC(=O)[C@H](CCC(=O)O)NC(=O)OCC(C)C)cc1` [Compound 157] was less than 10 µM.

Staying with this experiment, now noted: Table 2; NS3 protease domain/Pep4AK; read-out: Assay B.
Turning to `COc1ccc(CCNC(=O)[C@H](CS)NC(=O)[C@H](CC(C)C)NC(=O)[C@H](CCC(=O)O)NC(=O)Cc2cccs2)cc1` [Compound 223], the IC50 is less than 100 µM.
Still for that read-out and setting: to `CC(C)C[C@H](NC(=O)[C@H](CCC(=O)O)NC(=O)CCCC(=O)O)C(=O)N[C@@H](CS)C(=O)NCCc1ccccc1Cl` [Compound 244] belongs less than 100 µM.
Turning to `COc1ccc(CCNC(=O)[C@H](CS)NC(=O)[C@H](CC(C)C)NC(=O)[C@H](CCC(=O)O)NC(=O)C2C[C@H]2c2ccccc2)cc1` (stereo partly shown) [Compound 220], the IC50 is less than 100 µM.
Same read-out and setting: the value for `C=CCNC(=O)N[C@@H](CCC(=O)O)C(=O)N[C@@H](CC(C)C)C(=O)N[C@@H](CS)C(=O)NCCc1ccccc1Cl` [Compound 246] was less than 100 µM.
Still for that read-out and setting: the value for `COc1ccc(CCNC(=O)[C@H](CS)NC(=O)[C@H](CC(C)C)NC(=O)[C@H](CCC(=O)O)NC(=O)C2CCCCCC2)cc1` [Compound 232] was less than 100 µM; that for `COc1ccc(CCNC(=O)[C@H](CS)NC(=O)[C@H](CC(C)C)NC(=O)[C@H](CCC(=O)O)NC(=O)C(C)(C)CCC(=O)O)cc1` [Compound 243] was less than 100 µM; that for `CC(C)CC(O)C(=O)N[C@@H](CCC(=O)O)C(=O)N[C@@H](CC(C)C)C(=O)N[C@@H](CS)C(=O)NCCc1ccccc1Cl` (stereo partly shown) [Compound 229] was less than 100 µM.

The same experiment, now with this note: Table 4; NS3 protease domain/Pep4AK; read-out: Assay B.
Take `CC(C)COC(=O)N[C@@H](CCC(=O)O)C(=O)N1C2CCCCC2C[C@H]1C(=O)N[C@@H](CS)C(=O)NCCc1ccccc1Cl` (stereo partly shown) [Compound 420]: the IC50 was less than 10 µM.
`CC(C)COC(=O)N[C@@H](CCC(=O)O)C(=O)N[C@@H](CCC(=O)O)C(=O)N[C@@H](CS)C(=O)NCCc1ccccc1Cl` [Compound 412]: the IC50 is less than 100 µM.
With `CC(C)COC(=O)N[C@@H](CCC(=O)O)C(=O)N[C@@H](CC1CCCCC1)C(=O)N[C@@H](CS)C(=O)NCCc1ccc(C(=O)O)cc1` [Compound 409], the IC50 is less than 10 µM.
In the case of `CC(C)COC(=O)N[C@@H](CCC(=O)O)C(=O)N[C@@H](CC1CC1)C(=O)N[C@@H](CS)C(=O)NCCc1ccccc1Cl` [Compound 408], the IC50 is less than 100 µM.
For `CC(C)COC(=O)N[C@@H](CCC(=O)O)C(=O)N1c2ccccc2C[C@H]1C(=O)N[C@@H](CC(F)F)C(=O)NCCc1ccc(C(=O)O)cc1Cl` [Compound 421], the IC50 is less than 100 µM.
With `CC(C)COC(=O)N[C@@H](CCC(=O)O)C(=O)N1C=CC[C@H]1C(=O)N[C@@H](CS)C(=O)NCCc1ccccc1Cl` [Compound 419], the IC50 was less than 100 µM.
The same measure, in the same setting: to `CC(C)COC(=O)N[C@@H](CCC(=O)O)C(=O)NC(CC(F)(F)F)C(=O)N[C@@H](CS)C(=O)NCCc1ccc(C(=O)O)cc1` (mixture of isomers) [Compound 403] belongs less than 100 µM.

The values above are taken from patent US7119073B2, “Peptides and their use as inhibitors of hepatitis C virus ns3 protease” (Istituto Di Ricerche Di Biologia Molecolare P. Angeletti SpA, priority 2001, dated 2006).
